Measurements as given in patent publication US9024044B2, “Heteroarylcarboxylic acid ester derivative” (Ajinomoto Co., Inc., priority 2012, dated 2015).
Counter-ions that a name gives are not always drawn.

Legend:
Type in all cases: biochemical
[1] = molecular target: recombinant human enteropeptidase (Homo sapiens (Human), UniProt P98073); test: Measurement of enteropeptidase inhibitory activity; conditions: substrate Gly-Asp-Asp-Asp-Asp-Lys-β-Naphtylamide, Tris-HCl pH 8.0, Dixon plot
Protocol: Measurement of Enteropeptidase Inhibitory Activity
Using a 96 well plate (#3915, Costar), a test compound (25 μL), 400 mM Tris-HCl buffer (pH 8.0, 25 μL) and 0.5 mg/mL fluorescence enzyme substrate (Gly-Asp-Asp-Asp-Asp-Lys-β-Naphtylamide, 25 μL) were mixed, and recombinant human enteropeptidase (R&D Systems, Inc., 25 μL) was added. Using a fluorescence plate reader fmax (Molecular Devices, Inc.), the reaction rate was measured from the time-course changes at excitation wavelength 320 nm and fluorescence wavelength 405 nm. The Ki value was calculated from the concentration of the test compound, reciprocal of reaction rate, and Km value of the enzyme substrate, and by using Dixon plot.

[2] = molecular target: human trypsin; test: Measurement of trypsin inhibitory activity; conditions: substrate Boc-Phe-Ser-Arg-AMC, Tris-HCl pH 8.0, Dixon plot
Protocol: (§1) Measurement of Trypsin Inhibitory Activity
(§2) Using a 96 well plate (#3915, Costar), a test compound (25 μL) was mixed with 20 μM fluorescence enzyme substrate (Boc-Phe-Ser-Arg-AMC, 50 μL) mixed with 200 mM Tris-HCl buffer (pH 8.0), and human trypsin (Sigma, 25 μL) was added. Using a fluorescence plate reader fmax (Molecular Devices, Inc.), the reaction rate was measured from the time-course changes at excitation wavelength 355 nm and fluorescence wavelength 460 nm. The Ki value was calculated from the concentration of the test compound, reciprocal of reaction rate, and Km value of the enzyme substrate, and by using Dixon plot.

[3] = molecular target: human trypsin (Homo sapiens, UniProt P07477); test: Measurement of trypsin inhibitory activity; conditions: substrate Boc-Phe-Ser-Arg-AMC, Tris-HCl pH 8.0, Dixon plot
Protocol: as §1, §2

recombinant human enteropeptidase, sequence (P98073 whole entry): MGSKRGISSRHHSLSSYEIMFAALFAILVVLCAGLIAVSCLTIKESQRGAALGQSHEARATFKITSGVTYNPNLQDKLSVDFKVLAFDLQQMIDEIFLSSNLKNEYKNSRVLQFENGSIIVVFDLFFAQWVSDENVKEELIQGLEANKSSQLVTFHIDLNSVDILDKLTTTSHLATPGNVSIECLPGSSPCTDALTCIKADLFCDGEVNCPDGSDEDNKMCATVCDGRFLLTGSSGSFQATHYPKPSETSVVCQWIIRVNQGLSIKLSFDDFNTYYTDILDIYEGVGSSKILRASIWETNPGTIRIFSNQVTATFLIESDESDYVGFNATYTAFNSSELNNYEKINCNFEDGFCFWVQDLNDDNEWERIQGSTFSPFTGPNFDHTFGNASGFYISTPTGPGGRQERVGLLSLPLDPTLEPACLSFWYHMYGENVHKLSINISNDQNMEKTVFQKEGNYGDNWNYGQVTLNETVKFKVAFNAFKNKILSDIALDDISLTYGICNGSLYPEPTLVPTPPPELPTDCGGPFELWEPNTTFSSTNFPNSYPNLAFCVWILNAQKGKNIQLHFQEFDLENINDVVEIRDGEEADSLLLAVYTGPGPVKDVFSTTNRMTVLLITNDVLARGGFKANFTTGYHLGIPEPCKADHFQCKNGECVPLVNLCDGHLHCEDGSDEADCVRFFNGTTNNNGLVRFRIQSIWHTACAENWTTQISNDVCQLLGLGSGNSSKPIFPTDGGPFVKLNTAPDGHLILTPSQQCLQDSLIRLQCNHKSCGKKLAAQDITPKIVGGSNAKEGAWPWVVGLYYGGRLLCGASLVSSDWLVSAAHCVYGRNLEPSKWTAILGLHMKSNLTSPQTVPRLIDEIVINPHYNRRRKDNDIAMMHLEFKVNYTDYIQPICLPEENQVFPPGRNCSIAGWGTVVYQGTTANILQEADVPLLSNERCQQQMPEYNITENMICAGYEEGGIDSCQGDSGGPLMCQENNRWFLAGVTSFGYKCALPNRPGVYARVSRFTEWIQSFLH

Compound | Ki [1] | Ki [2] | Ki [3]
CC(C)(Cc1ccc(C(=O)Oc2ccc(C(=N)N)cc2F)s1)C(=O)Nc1ccc(O)c(C(=O)O)c1 [Compound 47] | 0.53 nM | 0.92 nM | –
CC(C)(Cc1ccc(C(=O)Oc2ccc(C(=N)N)cc2F)s1)C(=O)N1CCC[C@H]1CC(=O)O [Compound 41] | 1.58 nM | 3.88 nM | –
CCC(CC)(Cc1ccc(C(=O)Oc2ccc(C(=N)N)cc2F)s1)C(=O)N[C@@H](Cc1ccccc1)C(=O)O [Compound 16] | 1.1 nM | 8.3 nM | –
CCC[C@H](NC(=O)C(CC)(CC)Cc1ccc(C(=O)Oc2ccc(C(=N)N)cc2F)s1)C(=O)O [Compound 29] | 1.18 nM | 3.84 nM | –
CCCN(CC(=O)O)C(=O)C(C)(C)Cc1ccc(C(=O)Oc2ccc(C(=N)N)cc2F)s1 [Compound 10, N-{3-[5-(4-amidino-2-fluoro-phenoxycarbonyl)thiophen-2-yl]-2,2-dimethylpropionyl}-N-propylglycine hydrochloride] | 0.49 nM | 1.5 nM | –
CC[C@H](NC(=O)C(CC)(CC)Cc1ccc(C(=O)Oc2ccc(C(=N)N)cc2F)s1)C(=O)O [Compound 28] | 0.65 nM | 1.93 nM | –
CCC(CC)(Cc1ccc(C(=O)Oc2ccc(C(=N)N)cc2F)s1)C(=O)NCCCC(=O)O [Compound 30] | 0.94 nM | 2.73 nM | –
CC(C)(Cc1ccc(C(=O)Oc2ccc(C(=N)N)cc2F)s1)C(=O)Nc1cccc(C(=O)O)c1 [Compound 32] | 1.43 nM | 0.7 nM | –
CCC(CC)(Cc1ccc(C(=O)Oc2ccc(C(=N)N)cc2F)s1)C(=O)N[C@H](C(=O)O)C(C)C [Compound 13] | 1.56 nM | 5.18 nM | –
CC(C)(Cc1ccc(C(=O)Oc2ccc(C(=N)N)cc2F)s1)C(=O)NCC(=O)O [Compound 3] | 0.29 nM | 0.42 nM | –
CC(C)(Cc1ccc(C(=O)Oc2ccc(C(=N)N)cc2F)s1)C(=O)Nc1ccc(C(=O)O)cc1 [Compound 31] | 1.08 nM | 2.89 nM | –
CCC(CC)(Cc1ccc(C(=O)Oc2ccc(C(=N)N)cc2F)s1)C(=O)N[C@H](CCC(=O)O)C(=O)O [Compound 43] | 0.42 nM | 1.96 nM | –
CCC(CC)(Cc1ccc(C(=O)Oc2ccc(C(=N)N)cc2F)s1)C(=O)N[C@@H](CC(N)=O)C(=O)O [Compound 44] | 0.67 nM | 1.69 nM | –
CCC(CC)(Cc1ccc(C(=O)Oc2ccc(C(=N)N)cc2F)s1)C(=O)N[C@@H]1COC(=O)C1 [Compound 34] | 2.56 nM | 2.73 nM | –
CC(C)(Cc1ccc(C(=O)Oc2ccc(C(=N)N)cc2F)s1)C(=O)N1CCc2ccc(C(=O)O)cc2C1 [Compound 50] | 3.46 nM | – | 3.49 nM
CC(C)(Cc1ccc(C(=O)Oc2ccc(C(=N)N)cc2F)s1)C(=O)Nc1cc(C(=O)O)cc(C(=O)O)c1 [Compound 59] | 0.31 nM | – | 0.49 nM
CC(C)(Cc1ccc(C(=O)Oc2ccc(C(=N)N)cc2F)s1)C(=O)N[C@H](C(=O)O)C1CCCCC1 [Compound 35] | 2.56 nM | – | 3.04 nM
CCC(CC)(Cc1ccc(C(=O)Oc2ccc(C(=N)N)cc2F)s1)C(=O)NCCC(=O)O [Compound 14] | 0.99 nM | – | 2.5 nM
C=CCN(CCS(=O)(=O)O)C(=O)C(C)(C)Cc1ccc(C(=O)Oc2ccc(C(=N)N)cc2F)s1 [Compound 23, N-allyl-N-{3-[5-(4-amidino-2-fluoro-phenoxycarbonyl)-thiophen-2-yl]-2,2-dimethylpropionyl}taurine] | 1.81 nM | 3.17 nM | –
CCC(CC)(Cc1ccc(C(=O)Oc2ccc(C(=N)N)cc2F)s1)C(=O)N[C@@H](CO)C(=O)O [Compound 11, N-{3-[5-(4-amidino-2-fluoro-phenoxycarbonyl)thiophen-2-yl]-2,2-diethylpropionyl}-L-serine hydrochloride] | 0.41 nM | – | 1.87 nM
CCC(CC)(Cc1ccc(C(=O)Oc2ccc(C(=N)N)cc2F)s1)C(=O)N[C@H](C(=O)O)C(C)O (stereo partly drawn) [Compound 15] | 0.84 nM | – | 1.74 nM

The next lines start with the values.

Ki [1] | Ki [2] | Ki [3] | Compound
1.33 nM | 4.67 nM | – | CCC(CC)(Cc1ccc(C(=O)Oc2ccc(C(=N)N)cc2F)s1)C(=O)NC1(C(=O)O)CCC1 [Compound 80]
1.2 nM | 3.54 nM | – | CCC(CC)(Cc1ccc(C(=O)Oc2ccc(C(=N)N)cc2F)s1)C(=O)NCc1nnn[nH]1 [Compound 81]
0.67 nM | 1.01 nM | – | CC(C)(Cc1ccc(C(=O)Oc2ccc(C(=N)N)cc2F)s1)C(=O)NC1(C(=O)O)CC1 [Compound 57]
0.53 nM | 0.75 nM | – | CC(C)(Cc1ccc(C(=O)Oc2ccc(C(=N)N)cc2F)s1)C(=O)NCc1nnn[nH]1 [Compound 65]
0.67 nM | 2.01 nM | – | CC(C)(Cc1ccc(C(=O)Oc2ccc(C(=N)N)cc2F)s1)C(=O)N(CC(=O)O)CC1CC1 [Compound 76]
2.69 nM | 9.27 nM | – | CCC(CC)(Cc1ccc(C(=O)Oc2ccc(C(=N)N)cc2F)s1)C(=O)NCc1ccc(C(=O)O)cc1 [Compound 53]
0.69 nM | 1.42 nM | – | CCC(CC)(Cc1ccc(C(=O)Oc2ccc(C(=N)N)cc2F)s1)C(=O)NCC(=O)NCC(=O)O [Compound 77]
2.9 nM | 3.65 nM | – | CC(C)(Cc1ccc(C(=O)Oc2ccc(C(=N)N)cc2F)s1)C(=O)NCCC#N [Compound 63]
0.51 nM | 1.49 nM | – | CC(C)(Cc1ccc(C(=O)Oc2ccc(C(=N)N)cc2F)s1)C(=O)NC1(C(=O)O)CCC1 [Compound 56]
0.98 nM | 5.17 nM | – | CCC(CC)(Cc1ccc(C(=O)Oc2ccc(C(=N)N)cc2F)s1)C(=O)NCCCCC(=O)O [Compound 62]
3.26 nM | 1.97 nM | – | CC[C@H](C)[C@@H](CC(=O)O)NC(=O)C(CC)(CC)Cc1ccc(C(=O)Oc2ccc(C(=N)N)cc2F)s1 [Compound 49, N-{3-[5-(4-amidino-2-fluoro-phenoxycarbonyl)thiophen-2-yl]-2,2-diethylpropionyl}-beta-homoisoleucine hydrochloride]
1.11 nM | – | 1.7 nM | CC(C)(Cc1ccc(C(=O)Oc2ccc(C(=N)N)cc2F)s1)C(=O)N[C@H]1CC[C@@H](C(=O)O)CC1 [Compound 70]
